# Calls of active or inactive are those of the source.
# How the values were obtained:
# [1] = molecular target: Nuclear receptor subfamily 5 group A member 2 (Homo sapiens, UniProt O00482); format: functional, cell-based;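 further: HEK293T cells transfected with LRH-1 and a StAR promoter luciferase reporter; potency for inhibitors that lower LRH-1 driven reporter light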
# [2] = molecular target: Steroidogenic factor 1 (Homo sapiens, UniProt Q13285); assay: Counterscreen for inverse agonists of the liver receptor homolog-1 (LRH-1; NR5A2): Luminescence-based cell-based high throughput dose response assay to identify inverse agonists of the Steroidogenic Factor 1 Nuclear Receptor (SF1; NR5A1).; format: functional
# [3] = StAR promoter reporter inhibition counter-screen, dose response, counter-screen for LRH-1 inverse agonist project, cell-based, luminescence, luciferase reporter (AID 651969); format: functional
# [4] = molecular target: Major prion protein (Homo sapiens, UniProt P04156); format: functional, cell-based
# [5] = cells
# [6] = cytotoxicity toward NIH3T3 fibroblasts, dose response, counter-screen, cell-based, ATP luminescence, mouse fibroblasts (AID 2010); format: functional;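 further: cells exposed to compound for about 90 hours before reading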
# [7] = inhibitors of intracellular T. cruzi replication, confirmation, NIH3T3 host cells, beta-gal luminescence (AID 2044); format: functional, cell-based;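 further: intracellular parasites grown in NIH/3T3 mouse fibroblasts as host cells; luminescent beta-galactosidase reporter signal from transgenic T. cruzi replicating inside host cells; inhibitors lower the luminescence signal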
# [8] = molecular target: NAD-dependent protein deacylase sirtuin-5, mitochondrial (Homo sapiens, UniProt Q9NXA8); assay: SIRT5 desuccinylase inhibitors, dose response, biochemical, fluorescence imaging, cherry-pick, set 5 (AID 720591);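 further: desuccinylation of succinyl peptide AMC substrate read as fluorescence after trypsin release; potency of inhibitors that lower fluorescence and may act on trypsin instead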
# [9] = A cytotoxicity screen of small molecule inhibitors of the PhoP region in Salmonella typhi identified in the primary screen. [Related pubchem assays: 1850, 1864, 1985 ]; format: functional
# [10] = CEM21 lymphoblast cell cytotoxicity, dose response, cytotoxicity control for viral fusion inhibitor project, CellTiter-Glo luminescence, cherry-picked (AID 652042); format: functional, cell-based;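 further: potency for signal decrease meaning cytotoxicity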
# [11] = off-target signal loss in HeLa-CEM21 co-culture – HeLa F-luc CTL cells, cherry-picked, counter-screen for HIV-1 Env fusion inhibitor project, dose response (AID 652040); format: functional, cell-based;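 further: potency for signal decrease marking cytotoxic or nonspecific inhibition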
# [12] = ZM109 Env clade C HIV-1 fusion inhibitors, dose response, HeLa effector, CEM target cells, luciferase, cherry-pick (AID 652058); format: functional, cell-based
# [13] = inhibitors of HIV Env-driven cell fusion, dose response, cherry-pick (AID 652057); format: functional, cell-based
# [14] = molecular target: Paired box protein Pax-8 (Homo sapiens, UniProt Q06710); assay: inhibitors of PAX8-driven TPO luciferase reporter, dose response, RMG-I cells, cherry-pick (AID 687027); format: functional, cell-based;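 further: luciferase reporter driven by Pax8 target thyroperoxidase promoter measured by SteadyGlo luminescence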
# [15] = cytotoxicity in OVCAR8 ovarian cancer cells, dose response, PAX8 project, cell-based, plate reader, dry powder samples (AID 743197); format: functional; settings: OVCAR-8
# [16] = NIH:OVCAR-3 ovarian cancer cell cytotoxicity, dose response, PAX8 inhibitor project, plate reader, dry powder samples (AID 743044); format: functional, cell-based
# [17] = molecular target: T1, Type-1 angiotensin II receptor (Homo sapiens, UniProt P30556); assay: AT1 receptor antagonists, dose response, selectivity assay for APJ receptor antagonist project, cell-based, uHTS hits (AID 463214); format: functional;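 further: antagonist potency against angiotensin II stimulated AT1 response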
# T1 sequence (P30556 whole entry): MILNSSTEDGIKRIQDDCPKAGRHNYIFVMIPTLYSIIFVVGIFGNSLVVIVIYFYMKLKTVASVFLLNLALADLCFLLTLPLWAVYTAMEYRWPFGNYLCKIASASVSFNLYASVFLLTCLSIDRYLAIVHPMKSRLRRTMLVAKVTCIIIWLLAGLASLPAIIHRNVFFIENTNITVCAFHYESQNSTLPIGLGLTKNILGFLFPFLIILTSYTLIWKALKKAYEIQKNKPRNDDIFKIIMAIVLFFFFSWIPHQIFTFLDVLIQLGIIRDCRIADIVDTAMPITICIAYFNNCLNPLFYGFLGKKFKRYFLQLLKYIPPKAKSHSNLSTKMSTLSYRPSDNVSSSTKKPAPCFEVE
# [18] = molecular target: Beta-galactosidase (Escherichia coli, UniProt Q8VNN2); assay: PubChem AID 485352; format: functional
# [19] = molecular target: Mu-type opioid receptor (Homo sapiens, UniProt P35372); assay: (§1) Counterscreen for agonists of heterodimerization of the mu 1 (OPRM1) and delta 1 (OPRD1) opioid receptors: Luminescence-based cell-based high throughput dose response assay to identify agonists of OPRM1 homodimerization.; format: functional
# [20] = molecular target: T2, Short transient receptor potential channel 4 (Mus musculus, UniProt Q9QUQ5); assay: mouse TRPC4 channel activators, dose response, cell-based, HEK293 TRPC4/mu-opioid, Fluo-4 calcium (AID 434937); format: functional
# T2 sequence (Q9QUQ5 whole entry): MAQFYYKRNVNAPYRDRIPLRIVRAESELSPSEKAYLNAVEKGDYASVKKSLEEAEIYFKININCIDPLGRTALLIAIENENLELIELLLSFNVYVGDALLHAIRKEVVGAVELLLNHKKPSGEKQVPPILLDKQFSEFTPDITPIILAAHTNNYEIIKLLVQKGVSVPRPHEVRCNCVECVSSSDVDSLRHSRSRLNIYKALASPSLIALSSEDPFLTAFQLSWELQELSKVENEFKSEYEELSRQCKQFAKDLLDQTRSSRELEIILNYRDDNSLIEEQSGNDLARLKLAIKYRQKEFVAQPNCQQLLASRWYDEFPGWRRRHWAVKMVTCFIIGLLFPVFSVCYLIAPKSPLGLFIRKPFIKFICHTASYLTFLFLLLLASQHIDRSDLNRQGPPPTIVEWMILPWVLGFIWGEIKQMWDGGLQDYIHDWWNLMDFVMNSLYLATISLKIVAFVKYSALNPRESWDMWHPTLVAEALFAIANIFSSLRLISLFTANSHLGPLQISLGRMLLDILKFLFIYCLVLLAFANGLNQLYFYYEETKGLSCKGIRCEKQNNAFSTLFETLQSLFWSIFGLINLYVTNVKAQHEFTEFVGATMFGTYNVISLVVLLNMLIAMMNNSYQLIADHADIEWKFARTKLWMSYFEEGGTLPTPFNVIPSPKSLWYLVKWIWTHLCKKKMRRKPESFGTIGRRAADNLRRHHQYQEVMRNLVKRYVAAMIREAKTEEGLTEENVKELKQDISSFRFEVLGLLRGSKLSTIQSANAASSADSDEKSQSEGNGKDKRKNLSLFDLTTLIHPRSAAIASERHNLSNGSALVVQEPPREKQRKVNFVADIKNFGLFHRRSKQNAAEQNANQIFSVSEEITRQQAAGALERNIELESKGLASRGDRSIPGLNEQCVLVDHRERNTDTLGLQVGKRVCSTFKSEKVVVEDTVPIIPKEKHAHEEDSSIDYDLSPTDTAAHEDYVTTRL
# [21] = molecular target: 5-hydroxytryptamine receptor 5A (Homo sapiens, UniProt P47898); assay: Counterscreen for agonists of OPRM1-OPRD1 heterodimerization: luminescence-based cell-based high throughput dose response assay to identify agonists of 5-hydroxytryptamine (serotonin) 5A receptor (HTR5A). [Related pubchem assays (depositor defined):AID504326, AID504355, AID504692, AID504904, AID504905]; format: functional
# [22] = molecular target: Delta-type opioid receptor (Homo sapiens, UniProt P41143); assay: as §1, with “of OPRD1” for “of OPRM1”, “homodimerization. [Related pubchem assays (depositor defined):AID504326, AID504355, AID504692, AID504904, AID504905]” for “homodimerization.”; format: functional
smiles,measurement,setting,value
Cc1ccc(NC(=O)COC(=O)C(NS(=O)(=O)c2ccc(Cl)cc2)C(C)O)c(Br)c1 (centres undefined),IC50,[1],35.9 µM (inactive)
same,IC50,[2],1.33 µM (active)
same,IC50,[3],35.9 µM (inactive)
CC1SC(C)C(=O)N(CC(=O)Nc2ccc3c(c2)OCO3)C1=O (centres undefined),IC50,[1],35.9 µM (inactive)
same,IC50,[2],35.9 µM (inactive)
same,IC50,[3],35.9 µM (inactive)
Cc1cc(C)nc(NS(=O)(=O)c2ccc(NC(=O)CSc3nc(O)c(C#N)c(-c4ccccc4)n3)cc2)n1,IC50,[4],6.28 µM (active)
same,IC50,[5],> 138 µM (inactive)
Cc1cc(C)c2sc(NC(=O)c3ccc([N+](=O)[O-])o3)nc2c1,IC50,[1],35.8 µM (inactive)
same,IC50,[2],1.89 µM (active)
same,EC50,[6],> 60 µM (not active)
same,IC50,[3],35.8 µM (inactive)
same,EC50,[7],642 nM (active)
Nc1nc(O)c2ncn([C@@H]3O[C@H](CNCc4ccc(OCCCN5CCOCC5)cc4)[C@@H](O)[C@H]3O)c2n1,AC50,[8],> 30 µM (inactive)
CC1=C(c2ccccc2)SC2=NCCN21,EC50,[9],> 50 µM (active)
same,AC50,[8],> 30 µM (inactive)
Cc1ccc(S(=O)(=O)N(C)C)cc1NC(=O)C(C)N(C)CCOc1ccc(Cl)cc1 (centres undefined),AC50,[10],57 µM (active)
same,AC50,[11],39.3 µM (active)
same,AC50,[12],1.85 µM (active)
same,AC50,[13],18.7 µM (active)
CCCc1cc(=O)oc2c(C)c(OCC(=O)NC3CC(C)(C)NC(C)(C)C3)ccc12,IC50,[1],35.9 µM (inactive)
same,IC50,[2],0.443 µM (active)
same,IC50,[3],35.9 µM (inactive)
C[C@@H]1CCCCO[C@@H](CN(C)S(=O)(=O)c2ccc(F)cc2)[C@H](C)CN([C@H](C)CO)C(=O)c2cc(NS(=O)(=O)c3ccc(Cl)cc3)ccc2O1,AC50,[14],5.05 µM (active)
same,AC50,[15],> 70 µM (inactive)
same,AC50,[16],48.9 µM (active)
COc1ccc(S(=O)(=O)NNc2nc(C)cc(C)n2)cc1[N+](=O)[O-],IC50,[17],36.7 µM (not active)
same,EC50,[18],> 40 µM (inactive)
O=C(Cn1nnc2ccccc21)OCC(=O)c1ccc(Cl)c(Cl)c1,IC50,[17],13.3 µM (active)
same,EC50,[18],> 40 µM (inactive)
Cc1cccc(OCCC(=O)NCC(c2ccccc2)N(C)C)c1 (centres undefined),EC50,[19],> 92.5 µM (inactive)
same,EC50,[20],473 nM (active)
same,EC50,[21],> 92.5 µM (inactive)
same,EC50,[22],> 92.5 µM (inactive)

# Reference: ChEMBL document CHEMBL1201862, “PubChem BioAssay data set” (2004)
